Patent US7741341B2, “Benzimidazole-derivatives as factor Xa inhibitors” (sanofi-aventis Deutschland GmbH, priority 2003, dated 2010)

Target: T1, human factor Xa (Homo sapiens, UniProt P00742)
T1 construct: human factor Xa (Enzyme Research Laboratories, Inc; South Bend, Ind.); purchased Enzyme Research Laboratories, Inc; South Bend, Ind
Assay: Factor Xa assay (chromogenic, substrate S-2765)
Assay type: biochemical
Details: read-out: Ki(FXa)
Method: Purified enzymes were used in chromogenic assays.
The IC50 was determined by combining in appropriate wells of a Costar half-area microtiter plate 25 μl human factor Xa (Enzyme Research Laboratories, Inc.; South Bend, Ind.) in TBS-PEG; 40 μl 10% (v/v) DMSO in TBS-PEG (uninhibited control) or various concentrations of the compound to be tested diluted in 10% (v/v) DMSO in TBS-PEG; and substrate S-2765 (N(α)-benzyloxycarbonyl-D-Arg-Gly-L-Arg-p-nitroanilide; Kabi Pharmacia, Inc.; Franklin, Ohio) in TBS-PEG.
The assay was performed by pre-incubating the compound of formula I plus enzyme for 10 min. Then the assay was initiated by adding substrate to obtain a final volume of 100 μl. […] The enzyme concentration was 0.5 nM and substrate concentration was 140 μM.

T1 sequence (P00742 235-488 limits assumed): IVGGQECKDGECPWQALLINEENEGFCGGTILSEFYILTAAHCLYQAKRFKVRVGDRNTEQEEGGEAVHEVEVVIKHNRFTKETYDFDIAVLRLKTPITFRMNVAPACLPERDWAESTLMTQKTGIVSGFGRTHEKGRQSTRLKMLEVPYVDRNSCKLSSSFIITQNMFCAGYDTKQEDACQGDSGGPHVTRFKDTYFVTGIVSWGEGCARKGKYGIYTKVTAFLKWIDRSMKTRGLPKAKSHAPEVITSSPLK
T1 sequence (P00742 41-179 partner limits assumed): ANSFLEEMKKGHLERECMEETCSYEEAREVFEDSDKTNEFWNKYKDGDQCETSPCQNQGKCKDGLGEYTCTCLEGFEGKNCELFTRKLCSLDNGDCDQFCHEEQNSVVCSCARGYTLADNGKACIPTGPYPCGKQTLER

Row | SMILES | Ki [nM]
1 | CC(C)N1CCC(NC(=O)c2nc3ccccc3n2Cc2cc(-c3ccc(Cl)s3)on2)CC1 [Example 1, 1-[5-(5-Chloro-thiophen-2-yl)-isoxazol-3-ylmethyl]-1H-benzoimidazole-2-carboxylic acid (1-isopropyl-piperidin-4-yl)-amide] | 0.7
2 | CC(C)N1CCC(NC(=O)c2nc3ccccc3n2CC(=O)Nc2ccc(Cl)cc2)CC1 [Example 2, 1-[(4-Chloro-phenylcarbamoyl)-methyl]-1H-benzoimidazole-2-carboxylic acid (1-isopropyl-piperidin-4-yl)-amide] | 3.1
3 | CC(C)N1CCC(NC(=O)c2nc3ccccc3n2CC(=O)Nc2ccc(Cl)cn2)CC1 [Example 3, 1-[(5-Chloro-pyridin-2-ylcarbamoyl)-methyl]-1H-benzoimidazole-2-carboxylic acid (1-isopropyl-piperidin-4-yl)-amide] | 1.4
4 | O=C(NC1CCN(c2ccncn2)CC1)c1nc2ccccc2n1Cc1cc(-c2ccc(Cl)s2)on1 [Example 4, 1-[5-(5-Chloro-thiophen-2-yl)-isoxazol-3-ylmethyl]-1H-benzoimidazole-2-carboxylic acid (1-pyrimidin-4-yl-piperidin-4-yl)-amide] | 59.2
5 | COC(=O)c1ccc2c(c1)nc(C(=O)NC1CCN(C(C)C)CC1)n2Cc1cc(-c2ccc(Cl)s2)on1 [Example 5a, 1-[5-(5-Chloro-thiophen-2-yl)-isoxazol-3-ylmethyl]-2-(1-isopropyl-piperidin-4-ylcarbamoyl)-1H-benzoimidazole-5-carboxylic acid methyl ester] | 2.5
6 | COC(=O)c1ccc2nc(C(=O)NC3CCN(C(C)C)CC3)n(Cc3cc(-c4ccc(Cl)s4)on3)c2c1 [Example 5b, 3-[5-(5-Chloro-thiophen-2-yl)-isoxazol-3-ylmethyl]-2-(1-isopropyl-piperidin-4-ylcarbamoyl)-3H-benzoimidazole-5-carboxylic acid methyl ester] | 175
7 | CC(C)N1CCC(NC(=O)c2nc3cc(C(=O)O)ccc3n2Cc2cc(-c3ccc(Cl)s3)on2)CC1 [Example 6, 1-[5-(5-Chloro-thiophen-2-yl)-isoxazol-3-ylmethyl]-2-(1-isopropyl-piperidin-4-ylcarbamoyl)-1H-benzoimidazole-5-carboxylic acid] | 3
8 | CC(C)N1CCC(NC(=O)c2nc3ccc(C(=O)O)cc3n2Cc2cc(-c3ccc(Cl)s3)on2)CC1 [Example 7, 3-[5-(5-Chloro-thiophen-2-yl)-isoxazol-3-ylmethyl]-2-(1-isopropyl-piperidin-4-ylcarbamoyl)-3H-benzoimidazole-5-carboxylic acid] | 16.5
9 | CC(C)N1CCC(NC(=O)c2nc3cc(C(=O)O)ccc3n2Cc2cnc(-c3ccc(Cl)s3)s2)CC1 [Example 9, 1-[2-(5-Chloro-thiophen-2-yl)-thiazol-5-ylmethyl]-2-(1-isopropyl-piperidin-4-ylcarbamoyl)-1H-benzoimidazole-5-carboxylic acid] | 94
10 | COC(=O)c1cccc2c1nc(C(=O)NC1CCN(C(C)C)CC1)n2Cc1cc(-c2ccc(Cl)s2)on1 [Example 11a, 1-[5-(5-Chloro-thiophen-2-yl)-isoxazol-3-ylmethyl]-2-(1-isopropyl-piperidin-4-ylcarbamoyl)-1H-benzoimidazole-4-carboxylic acid methyl ester] | 4
11 | COC(=O)c1cccc2nc(C(=O)NC3CCN(C(C)C)CC3)n(Cc3cc(-c4ccc(Cl)s4)on3)c12 [Example 11b, 3-[5-(5-Chloro-thiophen-2-yl)-isoxazol-3-ylmethyl]-2-(1-isopropyl-piperidin-4-ylcarbamoyl)-3H-benzoimidazole-4-carboxylic acid methyl ester] | 1
12 | CC(C)N1CCC(NC(=O)c2nc3c(C(=O)O)cccc3n2Cc2cc(-c3ccc(Cl)s3)on2)CC1 [Example 12, 1-[5-(5-Chloro-thiophen-2-yl)-isoxazol-3-ylmethyl]-2-(1-isopropyl-piperidin-4-ylcarbamoyl)-1H-benzoimidazole-4-carboxylic acid] | 3
13 | CC(C)N1CCC(NC(=O)c2nc3cccc(C(=O)O)c3n2Cc2cc(-c3ccc(Cl)s3)on2)CC1 [Example 13, 3-[5-(5-Chloro-thiophen-2-yl)-isoxazol-3-ylmethyl]-2-(1-isopropyl-piperidin-4-ylcarbamoyl)-3H-benzoimidazole-4-carboxylic acid] | 299
14 | CC(C)N1CCC(NC(=O)c2nc3cccnc3n2Cc2cc(-c3ccc(Cl)s3)on2)CC1 [Example 14, 3-[5-(5-Chloro-thiophen-2-yl)-isoxazol-3-ylmethyl]-3H-imidazo[4,5-b]pyridine-2-carboxylic acid (1-isopropyl-piperidin-4-yl)-amide] | 2390
15 | COC(=O)c1cccc2c1nc(C(=O)NC1CCN(C(C)C)CC1)n2CC(=O)Nc1ccc(Cl)cn1 [Example 15, 1-[(5-Chloro-pyridin-2-ylcarbamoyl)-methyl]-2-(1-isopropyl-piperidin-4-ylcarbamoyl)-1H-benzoimidazole-4-carboxylic acid methyl ester] | 11.5
16 | CC(C)N1CCC(NC(=O)c2nc3c(C(=O)O)cccc3n2CC(=O)Nc2ccc(Cl)cn2)CC1 [Example 16, 1-[(5-Chloro-pyridin-2-ylcarbamoyl)-methyl]-2-(1-isopropyl-piperidin-4-ylcarbamoyl)-1H-benzoimidazole-4-carboxylic acid] | 11
17 | COC(=O)c1ccc2c(c1)nc(C(=O)NC1CCN(C(C)C)CC1)n2CC(=O)Nc1ccc(Cl)cn1 [Example 17a, 1-[(5-Chloro-pyridin-2-ylcarbamoyl)-methyl]-2-(1-isopropyl-piperidin-4-ylcarbamoyl)-1H-benzoimidazole-5-carboxylic acid methyl ester] | 19.5
18 | COC(=O)c1ccc2nc(C(=O)NC3CCN(C(C)C)CC3)n(CC(=O)Nc3ccc(Cl)cn3)c2c1 [Example 17b, 3-[(5-Chloro-pyridin-2-ylcarbamoyl)-methyl]-2-(1-isopropyl-piperidin-4-ylcarbamoyl)-3H-benzoimidazole-5-carboxylic acid methyl ester] | 371
19 | CC(C)N1CCC(NC(=O)c2nc3cc(C(=O)O)ccc3n2CC(=O)Nc2ccc(Cl)cn2)CC1 [Example 18, 1-[(5-Chloro-pyridin-2-ylcarbamoyl)-methyl]-2-(1-isopropyl-piperidin-4-ylcarbamoyl)-1H-benzoimidazole-5-carboxylic acid] | 22.5
20 | CC(C)N1CCC(NC(=O)c2nc3ccc(C(=O)O)cc3n2CC(=O)Nc2ccc(Cl)cn2)CC1 [Example 19, 3-[(5-Chloro-pyridin-2-ylcarbamoyl)-methyl]-2-(1-isopropyl-piperidin-4-ylcarbamoyl)-3H-benzoimidazole-5-carboxylic acid] | 23.5
21 | CCOC(=O)OC(C)OC(=O)c1cccc2c1nc(C(=O)NC1CCN(C(C)C)CC1)n2Cc1cc(-c2ccc(Cl)s2)on1 (stereo not drawn) [Example 20, 1-[5-(5-Chloro-thiophen-2-yl)-isoxazol-3-ylmethyl]-2-(1-isopropyl-piperidin-4-ylcarbamoyl)-1H-benzoimidazole-4-carboxylic acid 1-ethoxycarbonyloxy-ethyl ester] | 8.5
22 | CC(OC(=O)OC1CCCCC1)OC(=O)c1cccc2c1nc(C(=O)NC1CCN(C(C)C)CC1)n2Cc1cc(-c2ccc(Cl)s2)on1 (stereo not drawn) [Example 21, 1-[5-(5-Chloro-thiophen-2-yl)-isoxazol-3-ylmethyl]-2-(1-isopropyl-piperidin-4-ylcarbamoyl)-1H-benzoimidazole-4-carboxylic acid 1-cyclohexyloxycarbonyloxy-ethyl ester] | 31
23 | CC(C)N1CCC(NC(=O)c2nc3c(C(=O)NCCO)cccc3n2Cc2cc(-c3ccc(Cl)s3)on2)CC1 [Example 22, 1-[5-(5-Chloro-thiophen-2-yl)-isoxazol-3-ylmethyl]-1H-benzoimidazole-2,4-dicarboxylic acid 4-[(2-hydroxy-ethyl)-amide] 2-[(1-isopropyl-piperidin-4-yl)-amide]] | 0.7
24 | CC(C)N1CCC(NC(=O)c2nc3c(C(=O)N4CC(O)C4)cccc3n2Cc2cc(-c3ccc(Cl)s3)on2)CC1 [Example 23, 1-[5-(5-Chloro-thiophen-2-yl)-isoxazol-3-ylmethyl]-4-(3-hydroxy-azetidine-1-carbonyl)-1H-benzoimidazole-2-carboxylic acid (1-isopropyl-piperidin-4-yl)-amide] | 8
25 | CC(C)N1CCC(NC(=O)c2nc3c(C(=O)N(C)CCO)cccc3n2Cc2cc(-c3ccc(Cl)s3)on2)CC1 [Example 24, 1-[5-(5-Chloro-thiophen-2-yl)-isoxazol-3-ylmethyl]-1H-benzoimidazole-2,4-dicarboxylic acid 4-[(2-hydroxy-ethyl)-methyl-amide] 2-[(1-isopropyl-piperidin-4-yl)-amide]] | 26
26 | CC(C)N1CCC(NC(=O)c2nc3cc(C(=O)N(C)CCO)ccc3n2Cc2cc(-c3ccc(Cl)s3)on2)CC1 [Example 25, 1-[5-(5-Chloro-thiophen-2-yl)-isoxazol-3-ylmethyl]-1H-benzoimidazole-2,5-dicarboxylic acid 5-[(2-hydroxy-ethyl)-methyl-amide] 2-[(1-isopropyl-piperidin-4-yl)-amide]] | 65
27 | CC(C)N1CCC(NC(=O)c2nc3cc(C(=O)N4CC(O)C4)ccc3n2Cc2cc(-c3ccc(Cl)s3)on2)CC1 [Example 26, 1-[5-(5-Chloro-thiophen-2-yl)-isoxazol-3-ylmethyl]-5-(3-hydroxy-azetidine-1-carbonyl)-1H-benzoimidazole-2-carboxylic acid (1-isopropyl-piperidin-4-yl)-amide] | 18.5
